Experimental findings from article PMC8333425, “Discovery of a dual Ras and ARF6 inhibitor from a GPCR endocytosis screen” (Nature Communications, 2021) are described below.

Assay [1] deals with EGFR. The assay is described as follows: BRET concentration-response, EGFR of Fig1d source data. It counts as cell-based, human. For orientation: Bioluminescence resonance energy transfer reports proximity on the nanometre scale.
For assay [2], the system named is ERK1/2 activation by AT1R. The assay is described as follows: Western blot of AT1R-mediated ERK1/2 activation in β-arrestin1/2 KO cells. It counts as cell-based, human. The following applies: for ERK1/2 activation by AT1R in β-arrestin1/2 KO cells: 50 μM. The procedure: HEK293SL cells (10^5 cells per well) were seeded in a poly-L-lysine-coated six-well plate and transiently transfected with 3 μg Flag-AT1R, HA-B2R or HA-β2AR and/or 500 ng Flag-MEK1-WT, Flag-MEK1-DD, Flag-BRAF-WT, Flag-BRAF-V600E, Flag-K-Ras-WT, Flag-K-Ras-G12V, HA-ARF6-WT, or HA-ARF6-T27N. Gαq/11 KO and βarr1/2 KO cells were seeded onto 100 mm dishes at a density of 10^6 cells per dish. Next day, cells were transfected with 3 μg AT1R alone or along with 500 ng of β-arrestin2 using PEI. After 18 h of transfection, cells were detached and re-seeded onto poly-L-lysine coated 12-well plates (~1.5–2 × 10^5cells/well) for subsequent experiments. Forty-eight hours post transfection, in a 37 °C water bath, cells were serum-starved for 30 min, pretreated with DMSO (0.1%) or compound 21/Rasarfin (50 µM or at indicated concentrations) for 30 min, then stimulated or not with the indicated ligand [AngII (1 µM), BK (1 µM), Iso (10 µM) or EGF (100 ng/ml)] at indicated times. Cells were put on ice, washed with PBS and solubilized in 2x laemmli buffer (250 mM Tris–HCl pH 6.8, 2% SDS (w/v), 10% glycerol (v/v), 0.01% bromophenol blue (w/v) and 5% β-mercaptoethanol (v/v)) by heating at 65 °C for 15 min. Lysates were resolved on 10 or 14% SDS-PAGE, transferred to nitrocellulose membranes and immunoblotted for p-ERK1/2, ERK1/2, p-Akt, Akt, HA, Myc, β-actin or FLAG. ImageLab 5.2 software was used to quantify the digital blots as fold of the phosphorylated protein over total protein, which were then normalized as indicated in the figure legends. Uncropped immunoblots are provided in the Source Data file.
Background: A western blot detects proteins with antibodies after separation by electrophoresis.

Turning to `CC(C)C(=O)N1CCN(c2ccc(NC(=O)c3cc4ccccc4o3)cc2Cl)CC1` [Compound 21], the “EGFR, ligand-promoted BRET (Mean)” value in assay [1] (Log [Comp21] (M) -4.3) is on record as 103.469 percent compared to DMSO; in assay [1] (Log [Comp21] (M) -4.6), 97.8054 percent compared to DMSO; in assay [1] (Log [Comp21] (M) -5), 87.6772 percent compared to DMSO; in assay [1] (Log [Comp21] (M) -5.3), 105.328 percent compared to DMSO; in assay [1] (Log [Comp 21] (M) -6), 96.2669 percent compared to DMSO; in assay [1] (Log [Comp21] (M) -6.3), 100.826 percent compared to DMSO. The “EGFR, ligand-promoted BRET (Mean)” value in assay [1] (Log [Comp 21] (M) -7) is reported as 105.279 percent compared to DMSO. The “ERK1/2 activation by AT1R in β-arrestin1/2 KO cells” value in assay [2] is listed as “similarly inhibited ERK1/2 activation”; in assay [2] (listed as Rasarfin), “totally blocked”. The “ERK1/2 activation relative to time 0 (S_Fig.4a)” value in assay [2] (barr1/2 KO cells, Time 0 min) was determined as 1. In addition, the “Mean Diff. DMSO - Comp 21 (Bonferroni's multiple comparisons test)” value in assay [2] (barr1/2 KO cells, Time 0 min) was 0; in assay [2] (barr1/2 KO cells, Time 5 min), 8.446; in assay [2] (barr1/2 KO cells, Time 20 min), 10.85.
